According to PMC8202330, “Phosphorylation of the LIR Domain of SCOC Modulates ATG8 Binding Affinity and Specificity” (Journal of Molecular Biology, 2021):
Where two headings read alike, the source gives them in different places.

Legend:
Format in all cases: binding
LC3C = target: T1, LC3C (Homo sapiens, UniProt Q9BXW4); test: Bio-layer interferometry (BLI) affinity of SCOC LIR peptides for LC3C
T1 construct: GST (followed by 3C protease cleavage site) (N); made in house
Description: (§1) Bio-layer interferometry (BLI) is an optical analytical technique for measuring kinetics of interactions in real-time. The biosensor tip surface immobilized with a ligand is incubated with an analyte in solution, resulting in an increase in optical thickness at the biosensor tip and a wavelength shift, which is a direct measure of the change in thickness. Bio-layer interferometry analyses of ATG8s binding to immobilized biotinylated LIR peptides were performed using an Octet Red 96 (ForteBio). […] Ligands-loaded SA biosensors were then incubated with different concentrations of ATG8. All binding experiments were performed in solid-black 96-well plates containing 200 μl of solution (25 mM Tris pH 7.5, 150 mM NaCl, 0.5 mM TCEP, 0.1% Tween20, 1 mg/ml BSA) in each well at 25 °C with an agitation speed of 1000 rpm. Each measurement was repeated 2 to 3 times. Dissociation constants for LIR-ATG8 interactions were determined from plotting the increase in BLI response as a function of the protein concentration and fitting using non-linear regression of ForteBio 7.1 data analysis and GraphPad Prism 7 softwares.
(§2) The following peptides were synthesized using FMOC solid phase peptide chemistry by the Francis CRICK Institute peptide chemistry science technology platform: […]

GABARAPL1 = target: T2, GABARAPL1 (Homo sapiens, UniProt Q9H0R8); test: Bio-layer interferometry (BLI) affinity of SCOC LIR peptides for GABARAPL1
T2 construct: GST-GABARAPL1 full-length (pAL); GST (followed by 3C protease cleavage site) (N); made in house
Description: as §1, §2

GABARAP = target: T3, GABARAP (Homo sapiens, UniProt O95166); test: Bio-layer interferometry (BLI) affinity of SCOC LIR peptides for GABARAP
T3 construct: fused with a Gly-Ser linker to full-length GABARAP (GST-GABARAP (pAL)); GST (followed by 3C protease cleavage site) (N); made in house
Description: as §1, §2

LC3B = target: T4, LC3B (Homo sapiens, UniProt Q9GZQ8); test: Bio-layer interferometry (BLI) affinity of SCOC LIR peptides for LC3B
T4 construct: GST (followed by 3C protease cleavage site) (N); made in house
Description: as §1, §2

GABARAPL2 = target: T5, GABARAPL2 (Homo sapiens, UniProt P60520); test: Bio-layer interferometry (BLI) affinity of SCOC LIR peptides for GABARAPL2
T5 construct: GST (followed by 3C protease cleavage site) (N); made in house
Description: as §1, §2

LC3A = target: T6, LC3A (Homo sapiens, UniProt Q9H492); test: Bio-layer interferometry (BLI) affinity of SCOC LIR peptides for LC3A
T6 construct: GST (followed by 3C protease cleavage site) (N); made in house
Description: as §1, §2

[1] = BLI, wild-type and phosphorylated SCOC LIR peptides, Tris pH 7.5, 25 °C, average ± standard error of fit, n = 2–3, Figure 4B, read-out: Kd LC3C
[2] = BLI, wild-type and phosphorylated SCOC LIR peptides, Tris pH 7.5, 25 °C, average ± standard error of fit, n = 2–3, Figure 4B, read-out: Kd GAB-L1
[3] = BLI, wild-type and phosphorylated SCOC LIR peptides, Tris pH 7.5, 25 °C, average ± standard error of fit, n = 2–3, Figure 4B, read-out: Kd GAB
[4] = BLI, wild-type and phosphorylated SCOC LIR peptides, Tris pH 7.5, 25 °C, average ± standard error of fit, n = 2–3, Figure 4B, read-out: Kd LC3B
[5] = BLI, wild-type and phosphorylated SCOC LIR peptides, Tris pH 7.5, 25 °C, average ± standard error of fit, n = 2–3, Figure 4B, read-out: Kd GAB-L2
[6] = BLI, wild-type and phosphorylated SCOC LIR peptides, Tris pH 7.5, 25 °C, average ± standard error of fit, n = 2–3, Figure 4B, read-out: Kd LC3A
[7] = BLI, wild-type, truncated and phosphorylated SCOC LIR peptides, Tris pH 7.5, 25 °C, average ± standard error of fit, n = 2, Figure 6A, read-out: Kd LC3C
[8] = BLI, wild-type, truncated and phosphorylated SCOC LIR peptides, Tris pH 7.5, 25 °C, average ± standard error of fit, n = 2, Figure 6A, read-out: Kd GAB-L1
[9] = BLI, wild-type, truncated and phosphorylated SCOC LIR peptides, Tris pH 7.5, 25 °C, average ± standard error of fit, n = 2, Figure 6A, read-out: Kd GAB
[10] = BLI, wild-type, truncated and phosphorylated SCOC LIR peptides, Tris pH 7.5, 25 °C, average ± standard error of fit, n = 2, Figure 6A, read-out: Kd LC3A

T3 sequence (O95166 whole entry, the tested form may be a part): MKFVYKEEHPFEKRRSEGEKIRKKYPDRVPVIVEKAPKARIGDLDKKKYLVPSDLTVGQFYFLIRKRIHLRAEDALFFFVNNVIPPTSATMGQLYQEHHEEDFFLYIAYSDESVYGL
T5 sequence (P60520 whole entry): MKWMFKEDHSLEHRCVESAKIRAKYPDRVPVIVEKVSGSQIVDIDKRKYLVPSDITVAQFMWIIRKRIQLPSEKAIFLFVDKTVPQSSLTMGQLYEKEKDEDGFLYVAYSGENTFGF
T2 sequence (Q9H0R8 whole entry): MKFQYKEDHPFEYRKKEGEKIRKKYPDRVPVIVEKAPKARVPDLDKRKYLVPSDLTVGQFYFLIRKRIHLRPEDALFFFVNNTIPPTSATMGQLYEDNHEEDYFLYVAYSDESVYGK
T1 sequence (Q9BXW4 whole entry): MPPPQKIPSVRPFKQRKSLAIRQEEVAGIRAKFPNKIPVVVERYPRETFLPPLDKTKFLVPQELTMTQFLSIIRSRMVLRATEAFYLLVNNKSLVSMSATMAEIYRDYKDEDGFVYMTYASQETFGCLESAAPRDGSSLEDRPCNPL

Row | Compound | Kd (LC3C) [nM] | Kd (GABARAPL1) [nM] | Kd (GABARAP) [µM] | Kd (LC3B) [µM] | Kd (GABARAPL2) [µM] | Kd (LC3A) [µM] | Kd (LC3C; [1]) [nM] | Kd (GABARAPL1; [2]) [nM] | Kd (GABARAP; [3]) [µM] | Kd (LC3B; [4]) [µM] | Kd (GABARAPL2; [5]) [µM] | Kd (LC3A; [6]) [µM] | also measured
1 | CC[C@H](C)[C@H](NC(=O)[C@H](CC(=O)O)NC(=O)[C@H](CC(=O)O)NC(=O)[C@H](C)NC(=O)[C@H](CC(C)C)NC(=O)[C@H](CO)NC(=O)[C@@H](NC(=O)[C@H](CC(N)=O)NC(=O)[C@@H](NC(=O)[C@H](Cc1ccccc1)NC(=O)[C@@H](NC(=O)[C@H](CO)NC(=O)[C@H](CC(=O)O)NC(=O)[C@H](CCC(=O)O)NC(=O)[C@H](CCC(=O)O)NC(=O)[C@H](CCC(=O)O)NC(=O)[C@H](CCC(=O)O)NC(=O)[C@@H](N)CCCCN)[C@@H](C)O)[C@@H](C)OP(=O)(O)O)[C@@H](C)CC)C(=O)N[C@@H](CC(=O)O)C(=O)N[C@@H](Cc1c[nH]cn1)C(N)=O [pT15] | 3600 ± 400 | 1200 ± 100 | 3 ± 0.3 | 37.4 ± 4.5 | 44 ± 4.5 | 3.7 ± 0.5 |  |  |  |  |  |  | 
2 | CC[C@H](C)[C@H](NC(=O)[C@H](CC(=O)O)NC(=O)[C@H](CC(=O)O)NC(=O)[C@H](C)NC(=O)[C@H](CC(C)C)NC(=O)[C@H](COP(=O)(O)O)NC(=O)[C@@H](NC(=O)[C@H](CC(N)=O)NC(=O)[C@@H](NC(=O)[C@H](Cc1ccccc1)NC(=O)[C@@H](NC(=O)[C@H](COP(=O)(O)O)NC(=O)[C@H](CC(=O)O)NC(=O)[C@H](CCC(=O)O)NC(=O)[C@H](CCC(=O)O)NC(=O)[C@H](CCC(=O)O)NC(=O)[C@H](CCC(=O)O)NC(=O)[C@@H](N)CCCCN)[C@@H](C)O)[C@@H](C)O)[C@@H](C)CC)C(=O)N[C@@H](CC(=O)O)C(=O)N[C@@H](Cc1c[nH]cn1)C(N)=O [pS12, pS18] |  |  |  |  |  |  | 400 ± 40 | 400 ± 30 | 1 ± 0.1 | 7.8 ± 0.9 | 10.4 ± 0.5 | 1.6 ± 0.2 | 
3 | CC[C@H](C)[C@H](NC(=O)[C@H](CC(=O)O)NC(=O)[C@H](CC(=O)O)NC(=O)[C@H](C)NC(=O)[C@H](CC(C)C)NC(=O)[C@H](CO)NC(=O)[C@@H](NC(=O)[C@H](CC(N)=O)NC(=O)[C@@H](NC(=O)[C@H](Cc1ccccc1)NC(=O)[C@@H](NC(=O)[C@H](CO)NC(=O)[C@H](CC(=O)O)NC(=O)[C@H](CCC(=O)O)NC(=O)[C@H](CCC(=O)O)NC(=O)[C@H](CCC(=O)O)NC(=O)[C@H](CCC(=O)O)NC(=O)[C@@H](N)CCCCN)[C@@H](C)O)[C@@H](C)O)[C@@H](C)CC)C(=O)N[C@@H](CC(=O)O)C(=O)N[C@@H](Cc1c[nH]cn1)C(N)=O [SCOC WT] |  |  |  |  |  |  |  |  |  |  |  |  | Kd (GABARAP; BLI, biotinylated LIR peptide on streptavidin biosensor, Tris pH 7.5, 25 °C, average ± standard error of fit, n = 2, Figure 1E, Suppl. Figure 2A, read-out: Kd GABARAP): 3.6 µM
4 | CC[C@H](C)[C@H](NC(=O)[C@H](CC(=O)O)NC(=O)[C@H](CC(=O)O)NC(=O)[C@H](C)NC(=O)[C@H](CC(C)C)NC(=O)[C@H](CO)NC(=O)[C@@H](NC(=O)[C@H](CC(N)=O)NC(=O)[C@@H](NC(=O)[C@H](Cc1ccccc1)NC(=O)[C@@H](NC(=O)[C@H](COP(=O)(O)O)NC(=O)[C@H](CC(=O)O)NC(=O)[C@H](CCC(=O)O)NC(=O)[C@H](CCC(=O)O)NC(=O)[C@H](CCC(=O)O)NC(=O)[C@H](CCC(=O)O)NC(=O)[C@@H](N)CCCCN)[C@@H](C)O)[C@@H](C)O)[C@@H](C)CC)C(=O)N[C@@H](CC(=O)O)C(=O)N[C@@H](Cc1c[nH]cn1)C(N)=O [pS12] |  |  |  |  |  |  | 1400 ± 100 | 880 ± 80 | 1.5 ± 0.1 | 41.6 ± 4.6 | 12.8 ± 1.3 | 3 ± 0.4 | 
5 | CC[C@H](C)[C@H](NC(=O)[C@H](CC(=O)O)NC(=O)[C@H](CC(=O)O)NC(=O)[C@H](C)NC(=O)[C@H](CC(C)C)NC(=O)[C@H](COP(=O)(O)O)NC(=O)[C@@H](NC(=O)[C@H](CC(N)=O)NC(=O)[C@@H](NC(=O)[C@H](Cc1ccccc1)NC(=O)[C@@H](NC(=O)[C@H](CO)NC(=O)[C@H](CC(=O)O)NC(=O)[C@H](CCC(=O)O)NC(=O)[C@H](CCC(=O)O)NC(=O)[C@H](CCC(=O)O)NC(=O)[C@H](CCC(=O)O)NC(=O)[C@@H](N)CCCCN)[C@@H](C)O)[C@@H](C)O)[C@@H](C)CC)C(=O)N[C@@H](CC(=O)O)C(=O)N[C@@H](Cc1c[nH]cn1)C(N)=O [pS18] |  |  |  |  |  |  | 1900 ± 200 | 2100 ± 100 | 3.9 ± 0.3 | 48.9 ± 8.6 | 26 ± 2.4 | 4.9 ± 0.4 | 
6 | CC[C@H](C)[C@H](NC(=O)[C@H](CC(=O)O)NC(=O)[C@H](CC(=O)O)NC(=O)[C@H](C)NC(=O)[C@H](CC(C)C)NC(=O)[C@H](CO)NC(=O)[C@@H](NC(=O)[C@H](CC(N)=O)NC(=O)[C@@H](NC(=O)[C@H](Cc1ccccc1)NC(=O)[C@@H](NC(=O)[C@H](COP(=O)(O)O)NC(=O)[C@H](CC(=O)O)NC(=O)[C@H](CCC(=O)O)NC(=O)[C@H](CCC(=O)O)NC(=O)[C@H](CCC(=O)O)NC(=O)[C@H](CCC(=O)O)NC(=O)[C@@H](N)CCCCN)[C@@H](C)O)[C@@H](C)OP(=O)(O)O)[C@@H](C)CC)C(=O)N[C@@H](CC(=O)O)C(=O)N[C@@H](Cc1c[nH]cn1)C(N)=O [pS12, pT15] | 410 ± 40 | 370 ± 40 | 1 ± 0.1 | 4.8 ± 0.6 | 8.3 ± 0.4 | 0.7 ± 0.08 |  |  |  |  |  |  | 
7 | CC[C@H](C)[C@H](NC(=O)[C@H](CC(N)=O)NC(=O)[C@@H](NC(=O)[C@H](Cc1ccccc1)NC(=O)[C@@H](NC(=O)[C@H](CO)NC(=O)[C@H](CC(=O)O)NC(=O)[C@H](CCC(=O)O)NC(=O)[C@H](CCC(=O)O)NC(=O)[C@H](CCC(=O)O)NC(=O)[C@H](CCC(=O)O)NC(=O)[C@@H](N)CCCCN)[C@@H](C)O)[C@@H](C)O)C(=O)N[C@@H](CO)C(=O)N[C@@H](CC(C)C)C(=O)N[C@@H](C)C(N)=O [SCOC aa 6-20] |  |  |  |  |  |  |  |  |  |  |  |  | Kd (LC3C; [7]): 21300 ± 2400 nM; Kd (GABARAPL1; [8]): 6800 ± 600 nM; Kd (GABARAP; [9]): 8.5 ± 0.7 µM; Kd (LC3A; [10]): 209 ± 25 µM
8 | CC[C@H](C)[C@H](NC(=O)[C@H](CC(=O)O)NC(=O)[C@H](CC(=O)O)NC(=O)[C@H](C)NC(=O)[C@H](CC(C)C)NC(=O)[C@H](CO)NC(=O)[C@@H](NC(=O)[C@H](CC(N)=O)NC(=O)[C@@H](NC(=O)[C@H](Cc1ccccc1)NC(=O)[C@@H](NC(=O)[C@H](CO)NC(=O)[C@H](CC(=O)O)NC(=O)[C@H](CCC(=O)O)NC(=O)[C@H](CCC(=O)O)NC(=O)[C@H](CCC(=O)O)NC(=O)[C@H](CCC(=O)O)NC(=O)[C@@H](N)CCCCN)[C@@H](C)OP(=O)(O)O)[C@@H](C)O)[C@@H](C)CC)C(=O)N[C@@H](CC(=O)O)C(=O)N[C@@H](Cc1c[nH]cn1)C(N)=O [pT13] | 5000 ± 500 | 2000 ± 200 | 3.1 ± 0.3 | 193 ± 29 | 33.8 ± 2.6 | 10.1 ± 1.5 |  |  |  |  |  |  | 
9 | CC[C@H](C)[C@H](NC(=O)[C@H](CC(N)=O)NC(=O)[C@@H](NC(=O)[C@H](Cc1ccccc1)NC(=O)[C@@H](NC(=O)[C@H](CO)NC(=O)[C@H](CC(=O)O)NC(=O)[C@H](CCC(=O)O)NC(=O)[C@H](CCC(=O)O)NC(=O)[C@H](CCC(=O)O)NC(=O)[C@H](CCC(=O)O)NC(=O)[C@@H](N)CCCCN)[C@@H](C)O)[C@@H](C)O)C(=O)N[C@@H](COP(=O)(O)O)C(=O)N[C@@H](CC(C)C)C(=O)N[C@@H](C)C(N)=O [SCOC aa 6-20/pS18] |  |  |  |  |  |  |  |  |  |  |  |  | Kd (LC3C; [7]): 5000 ± 500 nM; Kd (GABARAPL1; [8]): 3800 ± 300 nM; Kd (GABARAP; [9]): 7.5 ± 0.8 µM; Kd (LC3A; [10]): 33.3 ± 4.8 µM
